From patent US20250034135A1, “ANTI-APOPTOTIC PROTEIN BCL-2 INHIBITOR, PHARMACEUTICAL COMPOSITION AND USES THEREOF” (HANGZHOU HEALZEN THERAPEUTICS CO., LTD., priority 2021, published 2025)
Read-outs that look alike come from different tables or passages of the source.

Tests used:
[1] = target: BCL2 (Homo sapiens (Human), UniProt P10415); assay: Molecular level activity test of anti-apoptotic protein BCL2 (HTRF, binding to Bim peptide); conditions: HTRF, binding of BCL2 to Bim peptide; read-out: BCL2 nM (inhibitory activity, IC50)
Outline: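 HTRF readout; His-BCL2 + biotin-BIM peptide + cpd (2% DMSO in compound addition), 1 h; then anti-His + SA-XL665 detection reagents, 4 h RT.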

[2] = target: BCL2 (G101V) (Homo sapiens (Human), UniProt P10415, G101V); assay: Molecular level activity test of anti-apoptotic protein BCL2 (G101V) (HTRF, binding to Bim peptide); conditions: inhibition of BCL2 (G101V) binding to Bim peptide, read-out: BCL-2 (G101V)
Outline: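 His-tagged recombinant BCL2 (G101V) incubated 1 h with biotin-BIM peptide and compound (2% DMSO), then anti-His and streptavidin-XL665 detection reagents added for 4 h at room temperature. HTRF signal reflects compound effect on BCL2–BIM binding.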

[3] = target: BCL2 (D103Y) (Homo sapiens (Human), UniProt P10415, D103Y); assay: Molecular level activity test of BCL2 (D103Y) (HTRF, binding to Bim peptide); conditions: read-out: BCL-2 (D103Y) (nM) (inhibitory activity, IC50)
Protocol: The detection of the binding ability between anti-apoptotic protein BCL2 (D103Y) and pro-apoptotic protein Bim was performed using Homogeneous Time-Resolved Fluorescence technology. The reaction of this method occurred in a white shallow 384-well plate, with a total reaction volume of 10 μL. Specifically, it included 2 μL of the compound to be tested (2% DMSO), 4 μL His-tagged recombinant protein, and 4 μL Biotin-tagged BIM protein peptide. After 1 hour of reaction, 5 μL of each Anti-His and streptavidin-tagged XL665 antibody diluents diluted with a detection buffer were added. After incubating at room temperature for 4 hours, the values were read using the Envision multifunctional microplate reader to detect the effect of the compound to be tested on the binding ability of BCL2 (D103Y) to BIM protein peptides.

[4] = test system: RS4; 11 cells; assay: Tumor proliferation inhibitory activity test (MTS) on RS4; 11; assay type: cell-based; conditions: Homo sapiens, RS4-11, 72 h, 3 days incubation
Outline: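 RS4;11 cells were exposed to serially diluted compound (0.2% DMSO control) for 3 days at 37 °C/5% CO2, followed by MTS for 3–4 h. Read-out was OD490−OD690, and inhibition was calculated relative to the DMSO and blank wells.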

[5] = target: BCL-XL (Homo sapiens (Human), UniProt Q07817); assay: BCL-XL enzyme molecular level activity test (HTRF, binding to BIM peptide); conditions: binding of BCL-XL to BIM peptide, read-out: BCL-XL inhibitory activity (IC50)
Sequence of BCL-XL (Q07817 whole entry): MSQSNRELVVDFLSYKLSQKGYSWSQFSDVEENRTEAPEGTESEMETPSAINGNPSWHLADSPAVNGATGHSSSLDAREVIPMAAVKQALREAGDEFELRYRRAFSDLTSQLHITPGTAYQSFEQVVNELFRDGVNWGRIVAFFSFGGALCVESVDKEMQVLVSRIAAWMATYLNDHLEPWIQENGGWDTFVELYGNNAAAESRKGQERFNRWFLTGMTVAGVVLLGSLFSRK
Outline: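 HTRF binding assay: His-tagged recombinant BCL-XL with biotin-BIM peptide and compound (2% DMSO), 1 h. Anti-His and streptavidin-XL665 detection reagents added, 4 h at room temperature. Excitation 320 nm; 665/615 nm ratio reflects binding, with no-protein background and no-compound full-binding controls.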

[6] = target: human CYP3A4 enzyme (Homo sapiens (Human), UniProt P08684); assay: CYP3A4 enzyme inhibitory activity (Vivid CYP3A4 Green screening kit); conditions: read-out: CYP3A4 (IC50); Vivid CYP3A4 Green screening kit
Sequence of human CYP3A4 enzyme (P08684 whole entry): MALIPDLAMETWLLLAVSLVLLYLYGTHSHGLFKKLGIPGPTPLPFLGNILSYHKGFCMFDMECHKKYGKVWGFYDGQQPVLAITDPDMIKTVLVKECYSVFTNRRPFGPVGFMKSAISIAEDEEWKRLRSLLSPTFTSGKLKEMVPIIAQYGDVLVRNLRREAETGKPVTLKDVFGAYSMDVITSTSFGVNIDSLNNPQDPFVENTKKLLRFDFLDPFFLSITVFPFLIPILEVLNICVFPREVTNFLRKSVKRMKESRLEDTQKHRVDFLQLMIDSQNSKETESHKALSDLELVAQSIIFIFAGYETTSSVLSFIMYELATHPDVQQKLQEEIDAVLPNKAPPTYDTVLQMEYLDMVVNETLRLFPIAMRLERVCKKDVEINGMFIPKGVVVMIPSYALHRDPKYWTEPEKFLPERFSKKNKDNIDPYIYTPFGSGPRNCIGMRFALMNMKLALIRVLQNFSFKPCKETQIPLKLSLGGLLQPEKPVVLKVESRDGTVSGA
Protocol: The inhibitory activity of compounds on human CYP3A4 enzyme was detected using a VIVID™ CYP3A4 GREEN SCRNING KIT reagent kit. The Vivid™ CYP450 screening kit includes a Vivid™ substrate, Vivid™ fluorescence standard, reaction buffer, Vivid™ regeneration system, NADP+ and CYP450 BACULOSOMES™ Plus reagent. Operations were performed following the instructions, and a blank control group was set up without adding any compounds.
The IC50 value of the compounds inhibiting human CYP3A4 enzyme was calculated using Graphpad Prism 7.00 software through the formula Y=100/(1+10^((Log IC50−X)*HillSlope)).

Work on `CC(C)c1ccccc1[C@@H]1CN(Cc2cccc(F)c2F)CCN1C1CC2(CCN(c3cc(Oc4cnc5[nH]ccc5c4)c(C(=O)NS(=O)(=O)c4ccc(NCC5(F)CCOCC5)c([N+](=O)[O-])c4)cc3F)CC2)C1` [compound 189, (R)-2-((1H-pyrrolo[2,3-b]pyrid-5-yl)oxy)-4-(2-(4-(2,3-difluorobenzyl)-2-(2-isopropylphenyl)piperazin-1-yl)-7-azaspiro[3.5]non-7-yl)-5-fluoro-N-((4-(((4-fluorotetrahydro-2H-pyran-4-yl)methyl)amino)-3-nitrophenyl)sulfonyl)benzamide] yielded an IC50 [1] of less than 0.01 µM, an IC50 [2] of less than 0.01 µM and an IC50 [3] of less than 10 nM. It also gave an IC50 [4] of less than 0.0005 µM, an IC50 ([5]; values given in μM) of 1.9 µM and an IC50 [6] greater than 20 µM.

With `COc1ccc(CN2CCN(C3CC4(CCN(c5cc(Oc6cnc7[nH]ccc7c6)c(C(=O)NS(=O)(=O)c6cc([N+](=O)[O-])c(NCC7(F)CCOCC7)c7[nH]cnc67)cc5F)CC4)C3)[C@H](c3ccccc3C(C)C)C2)cc1` [compound 264, (R)-2-((1H-pyrrolo[2,3-b]pyrid-5-yl)oxy)-5-fluoro-N-((7-(((4-fluorotetrahydro-2H-pyran-4-yl)methyl)amino)-6-nitro-1H-benzo[d]imidazol-4-yl)sulfonyl)-4-(2-(2-(2-isopropylphenyl)-4-(4-methoxybenzyl)piperazin-1-yl)-7-azaspiro[3.5]non-7-yl)benzamide] the IC50 [1] was less than 0.01 µM, the IC50 [2] was less than 0.01 µM and the IC50 [3] was less than 10 nM. For the same compound, the IC50 [4] was 0.0005 to 0.001 µM and the IC50 [6] was greater than 20 µM.

Work on `COc1ccc(CN2CCN(C3CC4(CCN(c5cc(Oc6cnc7[nH]ccc7c6)c(C(=O)NS(=O)(=O)c6ccc(NCC7CCOCC7)c([N+](=O)[O-])c6)cn5)CC4)C3)C(c3ccccc3C(C)C)C2)cc1` (stereo not drawn) [compound 063, 4-((1H-pyrrolo[2,3-b]pyrid-5-yl)oxy)-6-(2-(2-(2-isopropylphenyl)-4-(4-methoxybenzyl)piperazin-1-yl)-7-azaspiro[3.5]non-7-yl)-N-((3-nitro-4-(((tetrahydro-2H-pyran-4-yl)methyl)amino)phenyl)sulfonyl) nicotinamide] yielded an IC50 [1] of less than 0.01 µM, an IC50 [2] of less than 0.01 µM and an IC50 [3] of less than 10 nM. The IC50 [4] was less than 0.0005 µM, the IC50 ([5]; values given in μM) was greater than 1 µM and the IC50 [6] was greater than 20 µM.

In the case of `COc1ccc(CN2CCN(C3CC4(CCN(c5cc(Oc6cnc7[nH]ccc7c6)c(C(=O)NS(=O)(=O)c6ccc(NCC7CCOCC7)c([N+](=O)[O-])c6)cn5)CC4)C3)[C@H](c3ccccc3C(C)C)C2)cc1` [compound 257, (R)-4-((1H-pyrrolo[2,3-b]pyrid-5-yl)oxy)-6-(2-(2-(2-isopropylphenyl)-4-(4-methoxybenzyl)piperazin-1-yl)-7-azaspiro[3.5]non-7-yl)-N-((3-nitro-4-(((tetrahydro-2H-pyran-4-yl)methyl)amino)phenyl)sulfonyl) nicotinamide], the IC50 [1] is reported as less than 0.01 µM, the IC50 [2] is reported as less than 0.01 µM and the IC50 [3] is reported as less than 10 nM. It also gave an IC50 [4] of less than 0.0005 µM and an IC50 [6] greater than 20 µM.

With `COc1ccc(CN2CCN(C3CC4(CCN(c5cc(Oc6cnc7[nH]ccc7c6)c(C(=O)NS(=O)(=O)c6ccc(NCC7(F)CCOCC7)c([N+](=O)[O-])c6)cn5)CC4)C3)[C@H](c3ccccc3C(C)C)C2)cc1` [compound 258, (R)-4-((1H-pyrrolo[2,3-b]pyrid-5-yl)oxy)-N-((4-(((4-fluorotetrahydro-2H-pyran-4-yl)methyl)amino)-3-nitrophenyl)sulfonyl)-6-(2-(2-(2-isopropylphenyl)-4-(4-methoxybenzyl)piperazin-1-yl)-7-azaspiro[3.5]non-7-yl) nicotinamide] the IC50 [1] was less than 0.01 µM, the IC50 [2] was less than 0.01 µM and the IC50 [3] was less than 10 nM. For the same compound, the IC50 [4] was less than 0.0005 µM and the IC50 [6] was greater than 20 µM.

Compound `COc1ccc(CN2CCN(C3CC4(CCN(c5ccc(C(=O)NS(=O)(=O)c6cc([N+](=O)[O-])c(NC[C@H]7CC[C@](C)(O)CC7)c7[nH]cnc67)c(Oc6cnc7[nH]ccc7c6)c5)CC4)C3)[C@H](c3ccccc3C(C)C)C2)cc1` [compound 259, 2-((1H-pyrrolo[2,3-b]pyrid-5-yl)oxy)-N-((7-((((1r,4r)-4-hydroxy-4-methylcyclohexyl)methyl)amino)-6-nitro-1H-benzo[d]imidazol-4-yl)sulfonyl)-4-(2-((R)-2-(2-isopropylphenyl)-4-(4-methoxybenzyl)piperazin-1-yl)-7-azaspiro[3.5]non-7-yl)benzamide] has an IC50 [1] of less than 0.01 µM, an IC50 [2] of less than 0.01 µM and an IC50 [3] of less than 10 nM. For the same compound, the IC50 [4] was less than 0.0005 µM and the IC50 [6] was greater than 20 µM.

`COc1ccc(CN2CCN(C3CC4(CCN(c5cc(Oc6cnc7[nH]ccc7c6)c(C(=O)NS(=O)(=O)c6ccc(NCC7(F)CCN(C8COC8)CC7)c([N+](=O)[O-])c6)cn5)CC4)C3)C(c3ccccc3C(C)C)C2)cc1` (stereo not drawn) [compound 053, 4-((1H-pyrrolo[2,3-b]pyrid-5-yl)oxy)-N-((4-(((4-fluoro-1-(oxocyclobut-3-yl)piperid-4-yl)methyl)amino)-3-nitrophenyl)sulfonyl)-6-(2-(2-(2-isopropylphenyl)-4-(4-methoxybenzyl)piperazin-1-yl)-7-azaspiro[3.5]non-7-yl) nicotinamide] gave an IC50 [1] of less than 0.01 µM, an IC50 [2] of less than 0.01 µM and an IC50 [3] of less than 10 nM. The IC50 [4] was less than 0.0005 µM and the IC50 [6] was greater than 20 µM.

For `CNCc1ccc(CN2CCN(C3CC4(CCN(c5cc(Oc6cnc7[nH]ccc7c6)c(C(=O)NS(=O)(=O)c6ccc(NCC7(F)CCOCC7)c([N+](=O)[O-])c6)cc5F)CC4)C3)[C@H](c3ccccc3C(C)C)C2)cc1OC` [compound 246, (R)-2-((1H-pyrrolo[2,3-b]pyrid-5-yl)oxy)-5-fluoro-N-((4-(((4-fluorotetrahydro-2H-pyran-4-yl)methyl)amino)-3-nitrophenyl)sulfonyl)-4-(2-(2-(2-isopropylphenyl)-4-(3-methoxy-4-((methylamino)methyl)benzyl)piperazin-1-yl)-7-azaspiro[3.5]non-7-yl)benzamide], the IC50 [1] was less than 0.01 µM, the IC50 [2] was less than 0.01 µM and the IC50 [3] was less than 10 nM. The IC50 [4] was 0.0005 to 0.001 µM and the IC50 ([5]; values in nM) was greater than 0.5 µM.

Work on `CNCc1ccc(CN2CCN(C3CC4(CCN(c5cc(Oc6cnc7[nH]ccc7c6)c(C(=O)NS(=O)(=O)c6ccc(NCC7(F)CCOCC7)c([N+](=O)[O-])c6)cc5F)CC4)C3)[C@H](c3ccccc3C(C)C)C2)cc1` [compound 243, (R)-2-((1H-pyrrolo[2,3-b]pyrid-5-yl)oxy)-5-fluoro-N-((4-(((4-fluorotetrahydro-2H-pyran-4-yl)methyl)amino)-3-nitrophenyl)sulfonyl)-4-(2-(2-(2-isopropylphenyl)-4-(4-((methylamino)methyl)benzyl)piperazin-1-yl)-7-azaspiro[3.5]non-7-yl)benzamide] yielded an IC50 [1] of less than 0.01 µM, an IC50 [2] of less than 0.01 µM and an IC50 [3] of less than 10 nM. The IC50 [4] was 0.0005 to 0.001 µM and the IC50 ([5]; values in nM) was greater than 0.5 µM.

With `COc1ccc(CN2CCN(C3CC4(CCN(c5ccc(C(=O)NS(=O)(=O)c6cc([N+](=O)[O-])c(NCC7CCOCC7)c7c6OCO7)c(Oc6cnc7[nH]ccc7c6)c5)CC4)C3)[C@H](c3ccccc3C(C)C)C2)cc1` [compound 145, (R)-2-((1H-pyrrolo[2,3-b]pyrid-5-yl)oxy)-4-(2-(2-(2-isopropylphenyl)-4-(4-methoxybenzyl)piperazin-1-yl)-7-azaspiro[3.5]non-7-yl)-N-((6-nitro-7-(((tetrahydro-2H-pyran-4-yl)methyl)amino)benzo[d][1,3]dioxocyclopent-4-yl)sulfonyl)benzamide] the IC50 [1] was less than 0.01 µM, the IC50 [2] was less than 0.01 µM and the IC50 [3] was less than 10 nM. It also gave an IC50 [4] of less than 0.0005 µM and an IC50 ([5]; values given in μM) greater than 1 µM.

`COc1ccc(CN2CCN(C3CC4(CCN(c5ccc(C(=O)NS(=O)(=O)c6cc([N+](=O)[O-])c(NCC7CCOCC7)c7c6OCCO7)c(Oc6cnc7[nH]ccc7c6)c5)CC4)C3)[C@H](c3ccccc3C(C)C)C2)cc1` [compound 146, (R)-2-((1H-pyrrolo[2,3-b]pyrid-5-yl)oxy)-4-(2-(2-(2-isopropylphenyl)-4-(4-methoxybenzyl)piperazin-1-yl)-7-azaspiro[3.5]non-7-yl)-N-((7-nitro-8-(((tetrahydro-2H-pyran-4-yl)methyl)amino)-2,3-dihydrobenzo[b][1,4]dioxan-5-yl)sulfonyl)benzamide] showed an IC50 [1] of less than 0.01 µM, an IC50 [2] of less than 0.01 µM and an IC50 [3] of less than 10 nM. It also gave an IC50 [4] of 0.0005 to 0.001 µM and an IC50 ([5]; values given in μM) of 2.7 µM.
